This passage reports Ki and pKa results from ChEMBL document CHEMBL1138271, “Discovery of 5-substituted-6-chlorouracils as efficient inhibitors of human thymidine phosphorylase” (J Med Chem, 2007).

In data set [1] the target is T1, Thymidine phosphorylase (Homo sapiens, UniProt P19971).
T1 sequence (P19971 whole entry): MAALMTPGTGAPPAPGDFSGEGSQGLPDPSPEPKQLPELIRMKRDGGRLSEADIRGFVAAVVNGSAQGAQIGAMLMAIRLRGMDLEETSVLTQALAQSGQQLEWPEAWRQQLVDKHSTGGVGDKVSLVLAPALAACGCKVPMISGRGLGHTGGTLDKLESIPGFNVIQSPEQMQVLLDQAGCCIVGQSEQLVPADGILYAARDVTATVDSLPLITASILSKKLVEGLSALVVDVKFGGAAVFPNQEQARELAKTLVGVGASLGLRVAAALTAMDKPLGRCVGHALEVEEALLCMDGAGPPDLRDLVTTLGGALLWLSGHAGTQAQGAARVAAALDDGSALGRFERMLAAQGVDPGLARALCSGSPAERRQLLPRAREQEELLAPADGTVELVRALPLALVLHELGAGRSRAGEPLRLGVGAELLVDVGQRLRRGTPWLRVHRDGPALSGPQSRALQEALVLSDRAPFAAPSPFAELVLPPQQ
Put plainly: Inhibition of human recombinant thymidine phosphorylase expressed in V79 cells. In kind it is cell-based.

Data set [2] concerns the target T1, Thymidine phosphorylase. Put plainly: Inhibition of human placental thymidine phosphorylase.
A short description of data set [3]: Acid dissociation constant, pKa of the compound. In kind it is physicochemical.

For the compound `NCCNc1[nH]c(=O)[nH]c(=O)c1-c1ccccc1`, the Ki at Thymidine phosphorylase [1] and at Thymidine phosphorylase [2] was greater than 20 µM throughout.

`Cc1[nH]c(=O)[nH]c(=O)c1-c1ccccc1`: the Ki at Thymidine phosphorylase [1] and on Thymidine phosphorylase [2] was greater than 20 µM in each case.

`O=c1[nH]c(Cl)c(C2=CCCC2)c(=O)[nH]1`: the pKa (commonly the negative logarithm of the acid dissociation constant) in data set [3] was determined as 5.8.

Turning to `O=c1[nH]c(N2CCCC2)c(-c2ccccc2)c(=O)[nH]1`, the Ki on Thymidine phosphorylase [1] and at Thymidine phosphorylase [2] was greater than 20 µM in each case.

As for `CCc1c(Cl)[nH]c(=O)[nH]c1=O`, the inhibition constant Ki on Thymidine phosphorylase [1] and on Thymidine phosphorylase [2] was greater than 20 µM throughout.
